In brackets after ≈: the same amount, converted by molar mass. *1 amine or outer side, *2 acyl side, *3 side chain or, on linkers, in order; H or OH if unused. Where a SMILES comes first, the peptide text is derived from it. Bridges are numbered along the chain shown (N, C = ends). Roman numbers before positions name the chains, in order. [ ]: non-standard residue; d: D form. Actinocin(1to9) = Cc1c2oc3c(C)ccc(C(=O)[*:2])c3nc-2c(C(=O)[*:1])c(N)c1=O; NMeV = CN[C@H](C(=O)O)C(C)C; Sar = CNCC(=O)O
Key:
Format in all cases: functional
[1] = Cytotoxicity against human HMO2 cells after 48 hrs by sulforhodamine assay; settings: HMO2, 48 h; for CC50: read-out: LC50 (the source's name)
MCF7 = assay: Cytotoxicity against human MCF7 cells after 48 hrs by sulforhodamine assay; settings: MCF7, 48 h; for CC50: read-out: LC50 (the source's name)
Bacillus subtilis = assay: Antibacterial activity against Bacillus subtilis ATCC 6051 after 18 hrs; settings: ATCC 6051, 18 h
HepG2 = assay: Cytotoxicity against human HepG2 cells after 48 hrs by sulforhodamine assay; settings: HepG2, 48 h

## Cc1c2oc3c(C)ccc(C(=O)N[C@@H]4C(=O)N[C@H](C(C)C)C(=O)N5[C@H](C(=O)N(C)CC(=O)N(C)[C@@H](C(C)C)C(=O)O[C@@H]4C)[C@@H](O)C[C@@H]5C)c3nc-2c(C(=O)N[C@@H]2C(=O)N[C@H](C(C)C)C(=O)N3[C@@H](C)C(=O)C[C@H]3C(=O)N(C)CC(=O)N(C)[C@@H](C)C(=O)O[C@H]2CO)c(N)c1=O [ACTINOMYCIN Z1]
[1]
  GI50: 0.75 µM
  TGI: 5.8 µM
  CC50: > 50 µM
MCF7
  GI50: < 0.5 µM
  TGI: > 50 µM
  CC50: > 50 µM
Bacillus subtilis
  MIC: 12.5 µg/mL (≈ 9.6 µM)
HepG2
  GI50: 0.95 µM
  LC50: > 50 µM
  TGI: 5.5 µM

## Cc1c2oc3c(C)ccc(C(=O)N[C@@H]4C(=O)N[C@H](C(C)C)C(=O)N5[C@H](C(=O)N(C)CC(=O)N(C)[C@@H](C(C)C)C(=O)O[C@@H]4C)[C@@H](O)C[C@@H]5C)c3nc-2c(C(=O)N[C@@H]2C(=O)N[C@H](C(C)C)C(=O)N3[C@@H](C)C(=O)C[C@H]3C(=O)N(C)CC(=O)N(C)[C@@H](C)C(=O)O[C@H]2CCl)c(N)c1=O [ACTINOMYCIN Z3]
[1]
  GI50: < 0.1 µM
  TGI: < 0.1 µM
  CC50: 0.28 µM
MCF7
  GI50: < 0.1 µM
  TGI: < 0.1 µM
  CC50: 0.5 µM
Bacillus subtilis
  MIC: 0.2 µg/mL (≈ 0.152 µM)
HepG2
  GI50: < 0.1 µM
  LC50: > 50 µM
  TGI: 1.4 µM

## Cc1c2oc3c(C)ccc(C(=O)N[C@@H]4C(=O)N[C@H](C(C)C)C(=O)N5[C@@H](C)CC[C@H]5C(=O)N(C)CC(=O)N(C)[C@@H](C(C)C)C(=O)O[C@@H]4C)c3nc-2c(C(=O)N[C@@H]2C(=O)N[C@H](C(C)C)C(=O)N3[C@@H](C)C(=O)C[C@H]3C(=O)N(C)CC(=O)N(C)[C@@H](C)C(=O)O[C@H]2CCl)c(N)c1=O [ACTINOMYCIN Z5]
[1]
  GI50: < 0.1 µM
  TGI: < 0.1 µM
  CC50: 0.5 µM
MCF7
  GI50: < 0.1 µM
  TGI: 0.12 µM
  CC50: 0.5 µM
Bacillus subtilis
  MIC: 0.78 µg/mL (≈ 0.598 µM)
HepG2
  GI50: 1.5 µM
  LC50: > 50 µM
  TGI: 10 µM

## Cc1c2oc3c(C)ccc(C(=O)N[C@@H]4C(=O)N[C@H](C(C)C)C(=O)N5CCC[C@H]5C(=O)N(C)CC(=O)N(C)[C@@H](C(C)C)C(=O)O[C@@H]4C)c3nc-2c(C(=O)N[C@@H]2C(=O)N[C@H](C(C)C)C(=O)N3CCC[C@H]3C(=O)N(C)CC(=O)N(C)[C@@H](C(C)C)C(=O)O[C@@H]2C)c(N)c1=O [DACTINOMYCIN] (I: T[dV]P[Sar][NMeV] / II: T[dV]P[Sar][NMeV]; ester I:1-I:C, II:1-II:C; linker I:N-II:N via Actinocin(1to9))
[1]
  GI50: 0.3 µM
  TGI: 0.8 µM
  CC50: > 50 µM
MCF7
  GI50: 0.5 µM
  TGI: 2.2 µM
  CC50: > 50 µM
Bacillus subtilis
  MIC: 0.78 µg/mL (≈ 0.621 µM)
HepG2
  GI50: 1 µM
  TGI: 4 µM

Reference: ChEMBL document CHEMBL1155693, “Structures of five components of the actinomycin Z complex from Streptomyces fradiae, two of which contain 4-chlorothreonine” (2000)
